This passage reports inhibition results from patent US9662328B2, “Targeting human thymidylate kinase induces DNA repair toxicity in malignant tumor cells” (NATIONAL YANG-MING UNIVERSITY, priority 2010, dated 2017).

Molecules are shown by their SMILES.

The test concerns the target T1, hTMPK (Homo sapiens, UniProt P23919).
T1 sequence (P23919 1-212): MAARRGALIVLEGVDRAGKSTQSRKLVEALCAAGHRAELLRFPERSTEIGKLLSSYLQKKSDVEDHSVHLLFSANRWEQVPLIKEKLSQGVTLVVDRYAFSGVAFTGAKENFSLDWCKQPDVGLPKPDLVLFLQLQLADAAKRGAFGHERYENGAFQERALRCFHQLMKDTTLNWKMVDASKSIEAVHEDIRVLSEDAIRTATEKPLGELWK
Nature of the test: In vitro inhibitory activity against human TMPK at 2 μM. The format is biochemical. The following applies: test compounds at 2 μM concentration. Here is the method: The TMPK reaction was started by adding purified hTMPK in 50 μl of TMPK assay buffer (100 mM Tris-HCl, pH 7.5, 100 mM KCl, 10 mM MgCl2, 50 μM ATP and 100 μM dTMP) in 96 wells plate at 25° C. for 10 min and terminated by adding 200 μl of DTNB (100 μM), followed by transferring 10 μl of reaction solution to a white 96-wellplate containing 90 μl of luciferase assay buffer (50 mM Glycine, 0.5 mM EDTA and 5 mM EDTA, pH 7.0, 0.1 μg of luciferase, 50 μM luciferin and 0.1% BSA). The luminescence was measured with a luminescence counter (Packard).
All reactions were performed in 96-well plates in an assay volume of 100 μl. The activity of hTMPK was measured at 25° C. using a modified NADH coupled colorimetric assay as described (Agarwal et al., 1978; Miyata et al., 2003; Ostermann et al., 2003), in which purified hTMPK was added to the buffer containing 100 mM Tris-HCl, pH 7.5, 100 mM KCl, 10 mM MgCl2, 0.5 mM phosphoenol pyruvate, 0.25 mM NADH, 5 units of lactate dehydrogenase, 4 units of pyruvate kinase, 1 mM ATP, and 200 μM dTMP. The change of NADH was measured by reading the absorbance at 340 nm. One unit of TMPK activity is defined as the conversion of […] of TMP to TDP per minute.
The in vitro inhibitory activities of test compounds (at 2 μM concentration) against human TMPK are shown in Table 3 and compared with that of YMU1 and YMU2.
With `CC(C)(C)OC(=O)N1CCN(C(=O)Cn2sc3ncccc3c2=O)CC1` [I-a-1, Tert-butyl 4-(2-(3-oxoisothiazolo[5,4-b]pyridin-2(3H)-yl)acetyl)piperazine-1-carboxylate], at 2 µM the inhibition was 77 ± 4%.

In the case of `O=C(Cn1sc2ncccc2c1=O)N1CCN(C(=O)Oc2ccc([N+](=O)[O-])cc2)CC1` [I-a-2, 4-Nitrophenyl 4-(2-(3-oxoisothiazolo[5,4-b]pyridin-2(3H)-yl)acetyl)piperazine-1-carboxylate], at 2 µM the inhibition was 80 ± 10%.

Turning to `Cc1cc(N)nc2sn(CC(=O)N3CCN(C(=O)OC(C)(C)C)CC3)c(=O)c12` [I-a-3, Tert-butyl 4-[(6-amino-4-methyl-3-oxoisothiazolo[5,4-b]pyridin-2(3H)-2-yl)acetyl]piperazine-1-carboxylate], the inhibition (commonly the drop in the measured response relative to a control, in per cent) at 2 µM was determined as 16 ± 5%.

`Cc1cc(N)nc2sn(CC(=O)N3CCN(C(=O)Oc4ccc([N+](=O)[O-])cc4)CC3)c(=O)c12` [I-a-4, 4-Nitrophenyl 4-[2-(6-amino-4-methyl-3-oxoisothiazolo[5,4-b]pyridin-2(3H)-yl)acetyl]piperazine-1-carboxylate] yielded an inhibition at 2 µM of 10 ± 7%.

`Cc1cc(C)c2c(=O)n(CC(=O)N3CCN(C(=O)CNC(=O)Nc4ccccc4)CC3)sc2n1` [I-b-2, 1-(2-(4-(2-(4,6-Dimethyl-3-oxoisothiazolo[5,4-b]pyridin-2(3H)-yl)acetyl)piperazin-1-yl)-2-oxoethyl)-3-phenylurea] yielded an inhibition at 2 µM of 32 ± 2%.

For the compound `Cc1cc(C)c2c(=O)n(CC(=O)N3CCN(C(=O)CI)CC3)sc2n1` [I-b-3, 4,6-Dimethyl-2-[2-(4-(2-iodoacetyl)piperazin-1-yl)-2-oxoethyl]-isothiazolo[5,4-b]pyridin-3(2H)-one], 2 µM produced 29 ± 3% inhibition.

As for `O=C(Cn1sc2ncccc2c1=O)N1CCNCC1` [I-c-1, 2-(2-Oxo-2-(piperazin-1-yl)ethyl)isothiazolo[5,4-b]pyridin-3(2H)-one], the inhibition at 2 µM amounted to 75 ± 11%.

In the case of `Cc1cc(C)c2c(=O)n(CC(=O)N3CCNCC3)sc2n1` [I-c-2, 4,6-Dimethyl-2-(2-oxo-2-(piperazin-1-yl)ethyl)isothiazolo[5,4-b]pyridin-3(2H)-one], the inhibition at 2 µM came to 46 ± 2%.

In turn, `Cc1cc(N)nc2sn(CC(=O)N3CCNCC3)c(=O)c12` [I-c-3, 6-Amino-4-methyl-2-[2-oxo-2-(piperazin-1-yl)ethyl]isothiazolo[5,4-b]pyridin-3(2H)-one] gave an inhibition at 2 µM of 6 ± 5%.

As to `CCOC(=O)N1CCN(C(=O)Cn2sc3ccccc3c2=O)CC1` [I-d-1, Ethyl 4-(2-(3-oxobenzo[d]isothiazol-2(3H)-yl)acetyl)piperazine-1-carboxylate], testing at 2 µM gave an inhibition of 79 ± 5%.

For the compound `CC(C)(C)OC(=O)N1CCN(C(=O)Cn2sc3ccccc3c2=O)CC1` [I-d-2, Tert-butyl 4-(2-(3-oxobenzo[d]isothiazol-2(3H)-yl)acetyl)piperazine-1-carboxylate], the inhibition at 2 µM stood at 100 ± 9%.

As to `O=C(Cn1sc2ccccc2c1=O)N1CCN(C(=O)OCc2ccccc2)CC1` [I-d-3, Benzyl 4-(2-(3-oxobenzo[d]isothiazol-2(3H)-yl)acetyl)piperazine-1-carboxylate], testing at 2 µM gave an inhibition of 54 ± 1%.

`CC(C)(C)OC(=O)N1CCN(C(=O)Cn2sc3cccc(F)c3c2=O)CC1` [I-d-5, Tert-butyl 4-(2-(4-fluoro-3-oxobenzo[d]isothiazol-2(3H)-yl)acetyl)piperazine-1-carboxylate] gave an inhibition at 2 µM of 56 ± 4%.

As to `CC(C)(C)OC(=O)N1CCN(C(=O)Cn2sc3c(F)cccc3c2=O)CC1` [I-d-8, Tert-butyl 4-(2-(7-fluoro-3-oxobenzo[d]isothiazol-2(3H)-yl)acetyl)piperazine-1-carboxylate], the inhibition at 2 µM turned out to be 25 ± 3%.

`CC(C)(C)OC(=O)N1CCN(C(=O)Cn2sc3cc(Cl)ccc3c2=O)CC1` [I-d-9, Tert-butyl 4-(2-(6-chloro-3-oxobenzo[d]isothiazol-2(3H)-yl)acetyl)piperazine-1-carboxylate]: testing at 2 µM gave an inhibition of 55 ± 7%.

The compound `CC(C)(C)OC(=O)N1CCN(C(=O)Cn2sc3cc(Br)ccc3c2=O)CC1` [I-d-10, Tert-butyl 4-(2-(6-bromo-3-oxobenzo[d]isothiazol-2(3H)-yl)acetyl)piperazine-1-carboxylate] showed an inhibition at 2 µM of 56%.

For the compound `O=C(Cn1sc2cc(Br)ccc2c1=O)N1CCN(C(=O)Oc2ccc([N+](=O)[O-])cc2)CC1` [I-d-11, 4-Nitrophenyl 4-(2-(6-bromo-3-oxobenzo[d]isothiazol-2(3H)-yl)acetyl)piperazine-1-carboxylate], testing at 2 µM gave an inhibition of 86 ± 6%.

In turn, `CC(C)(C)OC(=O)N1CCN(C(=O)Cn2sc3cc(C(F)(F)F)ccc3c2=O)CC1` [I-d-12, Tert-butyl4-(2-(3-oxo-6-(trifluoromethyl)benzo[d]isothiazol-2(3H)-yl)acetyl)-piperazine-1-carboxylate] had an inhibition at 2 µM of 84 ± 1%.

For `CC(C)(C)OC(=O)N1CCN(C(=O)Cn2sc3cc(N)ccc3c2=O)CC1` [I-d-13, Tert-butyl 4-(2-(6-amino-3-oxobenzo[d]isothiazol-2(3H)-yl)acetyl)piperazine-1-carboxylate], 2 µM produced 39 ± 14% inhibition.

As to `CC(C)(C)OC(=O)N1CCN(C(=O)Cn2sc3cc(N=[N+]=[N-])ccc3c2=O)CC1` [I-d-14, tert-butyl 4-(2-(6-azido-3-oxobenzo[d]isothiazol-2(3H)-yl)acetyl)piperazine-1-carboxylate], the inhibition at 2 µM was 66 ± 5%.

`COc1ccc2c(=O)n(CC(=O)N3CCN(C(=O)OC(C)(C)C)CC3)sc2c1` [I-d-15, Tert-butyl 4-(2-(6-methoxy-3-oxobenzo[d]isothiazol-2(3H)-yl)acetyl)piperazine-1-carboxylate] displayed an inhibition at 2 µM of 51 ± 9%.

`CC(C)(C)OC(=O)N1CCN(C(=O)Cn2sc3cc(O)ccc3c2=O)CC1` [I-d-16, Tert-butyl 4-(2-(6-hydroxy-3-oxobenzo[d]isothiazol-2(3H)-yl)acetyl)piperazine-1-carboxylate]: the inhibition at 2 µM came to 22 ± 12%.

`CC(C)(C)OC(=O)N1CCN(C(=O)Cn2sc3cc(O[Si](C)(C)C(C)(C)C)ccc3c2=O)CC1` [I-d-17, Tert-butyl 4-(2-(6-((tert-butyldimethylsilyl)oxy)-3-oxobenzo[d]isothiazol-2(3H)-yl)-acetyl)piperazine-1-carboxylate] registered an inhibition at 2 µM of 80 ± 4%.

The compound `CCCCCCCCc1cn(-c2ccc3c(=O)n(CC(=O)N4CCN(C(=O)OC(C)(C)C)CC4)sc3c2)nn1` [I-d-18, Tert-butyl 4-(2-(6-(4-octyl-1H-1,2,3-triazol-1-yl)-3-oxobenzo[d]isothiazol-2(3H)-yl)acetyl)piperazine-1-carboxylate] returned an inhibition at 2 µM of 78 ± 7%.

For the compound `O=C(CI)N1CCN(C(=O)Cn2sc3ccccc3c2=O)CC1` [I-e-1, 2-[2-(4-(2-Iodoacetyl)piperazin-1-yl)-2-oxoethyl]benzo[d]isothiazol-3(2H)-one], the inhibition at 2 µM turned out to be 31 ± 5%.

Regarding `O=C(CN=C=S)N1CCN(C(=O)Cn2sc3ccccc3c2=O)CC1` [I-e-4, 2-(2-(4-(2-Isothiocyanatoacetyl)piperazin-1-yl)-2-oxoethyl)benzo[d]isothiazol-3(2H)-one], 2 µM produced 63 ± 10% inhibition.

With `COc1ccc(NC(=O)NCC(=O)N2CCN(C(=O)Cn3sc4ccccc4c3=O)CC2)cc1` [I-e-6, 1-(4-Methoxyphenyl)-3-(2-oxo-2-(4-(2-(3-oxobenzo[d]isothiazol-2(3H)-yl)acetyl)piperazin-1-yl)ethyl)urea], the inhibition at 2 µM turned out to be 55 ± 7%.
